{"source": "patent US6639111B2", "about": "“5-thia-ω-(substituted phenyl)-prostaglandin E alcohols, process for preparing the alcohols and pharmaceutical preparations containing the same as the active ingredient” (Ono Pharmaceutical Co., Ltd., priority 2000, dated 2003)", "key": {"[1]": {"test": "Converting into carboxylic acid in the living body: concentration in blood plasma of rat (LC/MS/MS)", "type": "in vivo, SD-strain male rat", "settings": "after Example 1(1) 1 mg/kg intravenous to rat, parent alcohol and the carboxylic acid formed from it", "experimental": "The compound of Example 1(1) (1 mg/kg; alcohol compound) was administered into SD-strain male rat by intravenous route to determine each concentration of the said compound and corresponding carboxylic acid, i.e., (11α, 15α, 13E)-9-oxo-11,15-dihydroxy-16-(3-methoxymethylphenyl)-17,18,19,20-tetranor-5-thiaprost-13-enoic acid (corresponding carboxylic acid) in blood plasma. The test solution may be prepared from a physiological saline solution containing 0.3%ethanol and 0.1% POLYSORBATE 80. The concentration was determined by using liquid chromatograph mass spectrometer (LC/MS/MS)."}, "TNF-α": {"system": "TNF-α", "test": "Inhibitory action on producing TNF-α induced by LPS in rat", "type": "in vivo, SD-strain male rat", "settings": "p.o. 30 minutes before LPS (10 μg/2 ml/kg i.v.); dose giving 50% inhibition of TNF-α in blood plasma 90 minutes after LPS", "experimental": "LPS (10 μg/2 ml/kg) was administered into a tail vein of SD-strain male rat. Blood was collected from an abdominal large vein with heparin after 90 minutes from administration to prepare blood plasma. The amount of TNF-α in the blood plasma was determined by using ELISA Kit (Rat TNF-α Immunoassay kit, Biosource Co.). Each compound of the present invention was administered orally before 30 minutes from administration of LPS."}}}
{"compound": "COCc1cccc(C[C@H](O)/C=C/[C@H]2[C@H](O)CC(=O)[C@@H]2CCSCCCC(=O)O)c1", "note": "[corresponding carboxylic acid, (11α, 15α, 13E)-9-oxo-11,15-dihydroxy-16-(3-methoxymethylphenyl)-17,18,19,20-tetranor-5-thiaprost-13-enoic acid]", "values": [{"measurement": "Concentration in blood plasma AUC0-∞", "setting": "[1]", "result": "99 ± 26", "unit": "ng·h/mL"}]}
{"compound": "COCc1cccc(C[C@H](O)/C=C/[C@H]2CCC(=O)[C@@H]2CCSCCCCO)c1", "note": "[Example 1, (15α, 13E)-9-oxo-15-Hydroxy-16-(3-methoxymethylphenyl)-17,18,19,20-tetranor-5-thiaprost-13-en-1-alcohol]", "values": [{"measurement": "Effective dose IC50", "setting": "TNF-α", "result": 0.117, "unit": "mg/kg"}]}
{"compound": "COCc1cccc(C[C@H](O)/C=C/[C@H]2[C@H](O)CC(=O)[C@@H]2CCSCCCCO)c1", "note": "[Example 1(1), (11α, 15α, 13E)-9-oxo-11,15-Dihydroxy-16-(3-methoxymethylphenyl)-17,18,19,20-tetranor-5-thiaprost-13-en-1-alcohol]", "values": [{"measurement": "AUC(0-inf)", "setting": "[1]; male, SD, plasma, read-out: Concentration in blood plasma AUC0-∞", "result": "462 ± 78", "unit": "ng·h/mL"}, {"measurement": "Effective dose IC50", "setting": "TNF-α", "result": 0.0574, "unit": "mg/kg"}]}
